According to the NIST ThermoML archive (doi:10.1016/j.tca.2010.02.008):

Assay: excess molar enthalpy (molar enthalpy of mixing); xn = mol fraction of the nth substance listed
Conditions: 773.15 K, 101 kPa, Liquid, Calvet calorimetry

[In] [indium] + [Sn]
Conditions | excess molar enthalpy [kcal/mol]
x2 = 0.1 | -0.0437
x2 = 0.1966 | -0.0894
x2 = 0.2981 | -0.104
x2 = 0.4041 | -0.0915
x2 = 0.5002 | -0.0791
x2 = 0.5005 | -0.0755
x2 = 0.5949 | -0.0719
x2 = 0.6901 | -0.0576
x2 = 0.7891 | -0.0394
x2 = 0.8975 | -0.0208
